Test results as given in ChEMBL document CHEMBL1148891, “New syntheses of tetrazolylmethylphenylalanine and O-malonyltyrosine as pTyr mimetics for the design of STAT3 dimerization inhibitors” (Bioorg Med Chem Lett, 2007).
Starred links: 1 amine or outer side, 2 acyl side, 3 side chain; linkers in the order of their positions; H or OH if unused. Non-standard residues stand in square brackets, D forms with d. Residues, ends and D or L forms follow the SMILES beside them. Phe(4-tetrazol-5-yl) = N[C@@H](Cc1ccc(-c2nnn[nH]2)cc1)C(=O)O; X1 = O=C([C@H](Cc1ccc(Cc2nn[nH]n2)cc1)N[*:1])[*:2]

Biological target: Signal transducer and activator of transcription 3 (Homo sapiens, UniProt P40763)
Sequence (P40763 whole entry): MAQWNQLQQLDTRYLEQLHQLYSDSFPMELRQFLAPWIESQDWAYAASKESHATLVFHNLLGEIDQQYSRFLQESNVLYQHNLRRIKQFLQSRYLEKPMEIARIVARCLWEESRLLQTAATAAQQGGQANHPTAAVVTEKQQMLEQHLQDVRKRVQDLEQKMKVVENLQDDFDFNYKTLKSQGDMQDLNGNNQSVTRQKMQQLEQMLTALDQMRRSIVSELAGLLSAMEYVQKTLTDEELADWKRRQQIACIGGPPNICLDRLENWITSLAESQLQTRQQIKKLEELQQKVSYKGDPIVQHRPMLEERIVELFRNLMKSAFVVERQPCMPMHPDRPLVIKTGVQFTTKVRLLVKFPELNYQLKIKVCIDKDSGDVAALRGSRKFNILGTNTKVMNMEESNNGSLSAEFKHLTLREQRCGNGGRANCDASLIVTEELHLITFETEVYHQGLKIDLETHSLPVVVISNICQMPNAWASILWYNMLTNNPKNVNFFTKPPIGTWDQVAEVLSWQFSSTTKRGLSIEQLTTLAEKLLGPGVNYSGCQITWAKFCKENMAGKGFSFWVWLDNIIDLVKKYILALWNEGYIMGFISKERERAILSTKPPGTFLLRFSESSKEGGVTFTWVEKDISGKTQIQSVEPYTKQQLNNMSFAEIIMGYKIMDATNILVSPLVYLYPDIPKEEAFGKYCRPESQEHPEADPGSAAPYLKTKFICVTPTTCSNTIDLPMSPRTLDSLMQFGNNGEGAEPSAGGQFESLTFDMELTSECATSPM
Experiment: Inhibition of STAT3 dimer DNA binding activity by ELISA after 30 mins

Structure (SMILES) | IC50 [nM]
CC(=O)N[C@@H](Cc1ccc(-c2nnn[nH]2)cc1)C(=O)N[C@@H](CC(C)C)C(=O)N1CCC[C@H]1C(=O)N[C@@H](CCC(N)=O)C(=O)N[C@H](C(=O)N[C@H](C(=O)O)C(C)C)[C@@H](C)O (Ac-[Phe(4-tetrazol-5-yl)]LPQTV-OH) | > 800
CC(=O)N[C@@H](Cc1ccc(Cc2nn[nH]n2)cc1)C(=O)N[C@@H](CC(C)C)C(=O)N1CCC[C@H]1C(=O)N[C@@H](CCC(N)=O)C(=O)N[C@H](C(=O)N[C@H](C(=O)O)C(C)C)[C@@H](C)O (Ac-[X1]LPQTV-OH) | > 1000
